Assays:
human cancer xenografts = settings: in vivo; cited from earlier work
Solubility = format: physicochemical; settings: required a high volume of cosolvent (DMSO)
[1] = tested on: GL261 murine brain tumor cells; test: GL261 growth curve, colony forming efficiency and cell size; format: cell-based
Description: 1×10^5 cells per 25 cm^2 flask at time zero (density 40 cells/mm^2). Three flasks were utilized at each time period. The medium in the flasks was not changed over the duration of the growth curve (unfed cultures). Data were taken daily from day zero to day 11.5 post-seeding and cell numbers, age distributions, and apoptotic percentages were determined. After growth curve shapes (without and with 2 μM Tetrac) were determined, irradiation times at 70 and 270 hour post-seeding were chosen.
To obtain exponential and plateau phase cell numbers, we trypsinized ([…] trypsin-EDTA) cells for 5 min at 37° C.
For determination of CCDTs, the cell numbers per flask were determined on a daily basis. A four-day interval in the exponential region of growth to obtain the CCDTs, yielding a total of 12 estimations for analysis was utilized. A regression analysis was performed using the (log) of the cell number versus the linear time in days (SigmaPlot, V. 10, Systat Software, Inc., Point Richmond, Calif.). The log slope value and its standard error (SE) were determined, and the SE was converted to the 95% confidence limits using a two-tailed t-table at N−1 degrees of freedom where N is the number of samples. (See Goldstein, A. In: Biostatistics, New York, The MacMillan Co., 1964, p. 140-146).

[2] = tested on: SKN-SH, SaOS2 and MCF7 cells, drug-sensitive and -resistant; test: MTT cell viability of drug-sensitive and drug-resistant cancer cells; format: cell-based; settings: 4 days
Description: Drug-sensitive and -resistant SKN-SH (FIGS. 13C-D), SaOS2 (FIGS. 13A-B), and MCF7 (FIGS. 13E-F) cells were subjected to treatment with increasing concentrations of Tetrac or Doxirubicin over a period of 4 days. Cell viability was then measured by MTT assay. The data represent the average of 4 determinations±SE.
Doxorubicin resistant SKN-SH/R, MCF7/R and SaOS2/R cells were subjected to treatment with Tetrac either alone or in combination with each of doxorubicin (Dox), etoposide (Etop), cisplatin (Cisp), or trichostatin A (TSA) at the indicated concentrations, After 4 days in cell viability was determined by the MTT assay and the data represented as average of 3 determinations±SE.

[3] = tested on: doxorubicin-resistant MCF7/R cells; test: Doxorubicin-resistant tumors in nude mice; format: in vivo
Description: Mice were injected with doxorubicin-resistant MCF7/R cells (10^6) and after 10 days, they were assigned into groups of seven mice each and challenged with doxorubicin (2 mg/kg) or Tetrac (30 mg/kg) either alone or in combination. Tumor volume was measured every 3 days for up to three weeks.

[4] = tested on: human medullary carcinoma of the thyroid (MTC) xenograft; test: MTC xenograft in nude mice; settings: mouse, in vivo
Description: Water and food were provided ad libitum.

[5] = tested on: matrigel plug angiogenesis; test: Mouse matrigel model of angiogenesis (plug hemoglobin); format: in vivo, mice (C57BL/6NCr)
Description: Normal male mice (C57BL/6NCr) 6-8 weeks of age and weighing ˜20 g were purchased from Taconic farm. Animals were housed 4 per cage, in controlled conditions of temperature (20-24° C.); humidity (60-70%) and 12 hrs. light/dark cycle provided with food and water ad libitum. […] Aliquots of matrigel were placed into cold polypropylene tubes to prevent the matrigel from solidifying and the angiogenesis promoter added to matrigel with or without agonist. Mice were treated daily. Matrigel was subcutaneously injected as triple injection per animal at 100 μL/animal. At day 14 post plug implant all animals were killed in CO2 chamber and matrigel plugs were collected. Plug hemoglobin content was analyzed from three implants/mice (n=6 per group) to measure angiogenesis.
The matrigel plugs dissected from the mice were carefully stripped of any remaining peritoneum. The plugs were placed into 0.5 mL tube of ddH2O and homogenized for 5-10 min. […] Absorbance was read with a Microplate Manager ELISA reader at 540 nm. […] Hemoglobin concentration is a reflection of the number of blood vessels in the plugs.

SKN-SH/R cells = test: Senescence and apoptosis in drug resistant cells; format: cell-based; settings: 24 h
Description: In FIG. 16A, SKN-SH/R cells were subjected to treatment doxorubicin (Dox) alone, Tetrac alone, or the combination of both for 24 h. Expression of p21/WAF1, cleaved caspase-3 (Cl-Casp-3) and beta action were measured by Western blot using specific antibodies. In FIG. 16B, the cells were seeded in 24 well plates and treated as mentioned above and expression of the senescence associated beta galactosidase (SA-β-Gal.) was assayed as described in the methods section. In FIG. 16C, the cells were seeded on cover slips and treated with the drugs as above for 24 h, after which they were fixed and stained with Hoechst and the percentage of positive cells graphed. The data represent average of 3 determinations±SE.

TTR (Transthyretin) = TTR (Transthyretin) (Homo sapiens, UniProt P02766); test: TTR displacement assay; format: binding
Description: Determination of the optimal or preferred density of the thyroid hormone or thyroid hormone analog bound to the nanoparticles is within the routine skill level in the art. For example, those skilled in the art will recognize that TTR (Transthyretin) can be used as the basis for a displacement assay in order to quantify the amount of Tetrac bound to nanoparticles. Specifically, such assays involve in vitro displacement of radiolabeled T4 from TTR by Tetrac or Tetrac nanoparticles (Tetrac NP). […] Amounts of nanoparticulate Tetrac in unknown suspensions (i.e., biologic fluids) are then calculated from the displacement of radiolabeled T4. […] The tubes are mixed and incubated for 16 hours at 4° C. The bound and free hormones are separated by adding dextran-coated charcoal (DCC) to each tube, which is then centrifuged at 12,000×g for 2 min. at 4° C. Bound [I^125] T4 in the supernatant is measured by scintillation counting.

GL261 cells = test: GL261 potentially lethal damage repair (PLDR); format: cell-based, murine
Description: PLDR was also measured using the 10% survival level in both control and Tetrac treated-cells, and was also done for both exponentially growing and plateau phase cells. The total 10% survival dose was given, and then cells were placed back into the 37° C. incubator for various periods of time. At 0, 0.5, 1.0, 1.5, 2.0, 3.0, 4.0, 6.0, 8.0, and 10.0 hours, flasks were removed, and processed for survival assessment.
To investigate the effects of Tetrac on SLDR and PLDR, cells were chosen that had been given a one-hour treatment with Tetrac at two different times, i.e., at 70 and 270 hours post-seeding).

What does the source list for `O=C(O)Cc1cc(I)c(Oc2cc(I)c(O)c(I)c2)c(I)c1` [Tetrac, tetraiodothyroacetic acid]?
systemic toxicity (in words) (human cancer xenografts): have not to-date shown systemic toxicity; solubility in water (in words) (Solubility): difficult to solubilize in water; CFE (%) ([1]; exponential cells (+Tetrac), control 30.6, with feeder cells): 24.2%; size of Tetrac-treated cells relative to control (volumetric data) ([1]; exponential phase): 1.4 times; size of Tetrac-treated cells relative to control (volumetric data) ([1]; plateau phase): 1.9 times; anti-proliferative activity against drug-sensitive vs drug-resistant cells (in words) ([2]; MTT): equivalent anti-proliferative activity; cellular responses to doxorubicin, etoposide, cisplatin and TSA when combined with Tetrac (in words) ([2]; doxorubicin resistant SKN-SH/R, MCF7/R and SaOS2/R cells): significantly enhanced; toxic effect (in words) ([3]; Tetrac 30 mg/kg): without any noticeable toxic effect; doxorubicin-sensitivity in vivo (in words) ([3]; Tetrac 30 mg/kg with doxorubicin 2 mg/kg): not restored; growth of doxorubicin-resistant tumors (in words) ([3]; Tetrac 30 mg/kg, up to three weeks): effective in suppressing the growth of drug resistant tumors; mortality (in words) [4]: no mortality; inhibition in vivo at 10 µg/plug ([5]; Mus musculus, FGF 100 ng + test substance 10 μg/plug, numbers are Tetrac analogs of Example 13): 90 ± 13%; inhibition of FGF induced angiogenesis ([5]; Tetrac 10 μg): 85%; doxorubicin-induced proliferation arrest (p21/WAF1), SA-β-Gal and cell death (in words) (SKN-SH/R cells): dramatically enhanced; affinity of TTR relative to that for T4 (TTR (Transthyretin)): 100 times; inhibition of PLDR by a factor of (GL261 cells; exponential cells): 1.9; decrease of PLDR expression by a factor of (GL261 cells; plateau phase cells): 3.4

— patent US8802240B2, “Uses of formulations of thyroid hormone analogs and nanoparticulate forms thereof to increase chemosensitivity and radiosensitivity in tumor or cancer cells” (Nanopharmaceuticals LLC, priority 2011, dated 2014)
